This is an account of results in patent publication US20250011300A1, “PIPERAZINYLSULFONYLARYL COMPOUNDS FOR TREATMENT OF BACTERIAL INFECTIONS” (Hoffmann-La Roche Inc., priority 2021, published 2025).

One experiment has as its system E. coli (ATCC 25922). Nature of the experiment: Minimal Inhibitory Concentration (MIC) assay, E. coli. The experiment is classed as cell-based. The note with it: Escherichia coli, ATCC25922; E. coli ATCC 25922, CAMHB, 20 hours at 35° C.; read-out: MIC E. coli ATCC 25922. On the procedure:
(§1) Example 122: Minimal Inhibitory Concentration Protocol (MIC) Assay
(§2) The in vitro potency of compounds to inhibit E. coli (ATCC 25922) and K. pneumonia (ATCC 43816) growth was assessed by MIC (Minimal Inhibitory Concentration) assay. Samples were prepared from 10 mM DMSO stock solutions. After serial 2-fold dilution in DMSO in a master plate (Greiner, Cat No: 651201), 180 μL sterile distilled water was added to 20 μL each aliquot of the samples. Then 10 μL diluted compounds were transferred into a new assay plate (Costar, 3599).
(§3) The growth medium Cation-Adjusted Mueller Hinton Broth (CAMHB) was prepared by adding the 20 mg per liter CaCl2) and 20 mg per liter MgCl2 into the MHB medium (Jianglai Company, sterilized).
(§4) Vials of each of the test microorganisms were maintained frozen in the vapor phase of a liquid nitrogen freezer. The bacteria E. coli ATCC 25922 (KWIKSTIK, 0335K) and K. pneumonia ATCC 43816 were taken out from liquid nitrogen freezer, then thawed in room temperature, and diluted in the CAMHB medium to achieve a final inoculum of 5×10^5 CFU/mL. 90 μL CAMHB with bacteria was dispensed to the assay plate and pipetted 5 times.
(§5) Then the assay plates were incubated for 20 hours at 35° C. in ambient air. Following incubation, the MIC (μg/mL), the lowest concentration of drug that inhibits visible growth of the microorganism was read and recorded throw the microscope.

Experiment [1] relates to K. pneumonia (ATCC 43816). Nature of the experiment: Minimal Inhibitory Concentration (MIC) assay, K. pneumonia. It is filed as cell-based. The note with it: Klebsiella pneumoniae; K. pneumoniae ATCC43816, CAMHB, 20 hours at 35° C.; read-out: MIC K. pneumoniae ATCC43816. On the procedure: as §1, §2, §3, §4, §5

In brackets after ≈: the same amount, converted by molar mass.

As usually defined, the MIC is the lowest concentration found to suppress growth. As to `O=C1O[C@@H]2[C@@H](O)[C@H](CO)[C@@H](O)O[C@@H]2N1c1ccc(S(=O)(=O)N2CCN(c3cc(C(F)(F)F)cc(Cl)n3)CC2)cc1` [Example 23, (3aS,5S,6S,7S,7aR)-3-[4-[4-[6-chloro-4-(trifluoromethyl)-2-pyridyl]piperazin-1-yl]sulfonylphenyl]-5,7-dihydroxy-6-(hydroxymethyl)-5,6,7,7a-tetrahydro-3aH-pyrano[2,3-d]oxazol-2-one], the MIC in the experiment with E. coli (ATCC 25922) turned out to be 30.4 µg/mL (≈ 50 µM); in experiment [1], 60.9 µg/mL (≈ 100 µM).
Take `O=C1CC(N2CCNCC2)CN1c1ccc(S(=O)(=O)N2CCN(c3cc(C(F)(F)F)cc(Cl)n3)CC2)cc1` (centres unmarked) [Example 47, 1-[4-[4-[6-Chloro-4-(trifluoromethyl)-2-pyridyl]piperazin-1-yl]sulfonylphenyl]-4-piperazin-1-yl-pyrrolidin-2-one]: the MIC in the experiment with E. coli (ATCC 25922) amounted to 1.91 µg/mL (≈ 3.33 µM); in experiment [1], 5.71 µg/mL (≈ 9.96 µM).
The corresponding values for `NC1CCN(C2CC(=O)N(c3ccc(S(=O)(=O)N4CCN(c5cc(C(F)(F)F)cc(Cl)n5)CC4)cc3)C2)C1` (centres unmarked) [Example 50, 4-(3-Aminopyrrolidin-1-yl)-1-[4-[4-[6-chloro-4-(trifluoromethyl)-2-pyridyl]piperazin-1-yl]sulfonylphenyl]pyrrolidin-2-one] are 1.91 µg/mL (≈ 3.33 µM) and 3.81 µg/mL (≈ 6.65 µM).
The corresponding values for `NC1CC(=O)N(c2ccc(S(=O)(=O)N3CCN(c4cc(C(F)(F)F)cc(Cl)n4)CC3)cn2)C1` (centres unmarked) [Example 62, 4-Amino-1-[5-[4-[6-chloro-4-(trifluoromethyl)-2-pyridyl]piperazin-1-yl]sulfonyl-2-pyridyl]pyrrolidin-2-one] are 7.74 µg/mL (≈ 15.3 µM) and 15.5 µg/mL (≈ 30.6 µM).
The corresponding values for `Cc1cc(C(F)(F)F)nc(N2CCN(S(=O)(=O)c3ccc(N4CC(N)CC4=O)cc3)CC2)n1` (centres unmarked) [Example 65, 4-Amino-1-[4-[4-[4-methyl-6-(trifluoromethyl)pyrimidin-2-yl]piperazin-1-yl]sulfonylphenyl]pyrrolidin-2-one] are 3.74 µg/mL (≈ 7.72 µM) and 7.48 µg/mL (≈ 15.4 µM).
`[2H]C([2H])([2H])c1cc(C(F)(F)F)nc(N2CCN(S(=O)(=O)c3ccc(N4CC(N)CC4=O)cc3)CC2)n1` (centres unmarked) [Example 66, 4-Amino-1-[4-[4-[4-(trideuteriomethyl)-6-(trifluoromethyl)pyrimidin-2-yl]piperazin-1-yl]sulfonylphenyl]pyrrolidin-2-one]: the MIC in the experiment on E. coli (ATCC 25922) stood at 3.76 µg/mL (≈ 7.71 µM); in experiment [1], 7.52 µg/mL (≈ 15.4 µM).
The like results for `NC1CC(=O)N(c2ccc(S(=O)(=O)N3CCN(c4cc(Cc5ccccc5)cc(Cl)n4)CC3)cc2)C1` (centres unmarked) [Example 74, 4-Amino-1-[4-[4-(4-benzyl-6-chloro-2-pyridyl)piperazin-1-yl]sulfonylphenyl]pyrrolidin-2-one] were, in that order, 1.18 µg/mL (≈ 2.24 µM) and 1.18 µg/mL (≈ 2.24 µM).
Take `NC1CC(=O)N(c2ccc(S(=O)(=O)N3CCN(c4cc(C5(c6ccccc6)CC5)cc(Cl)n4)CC3)cc2)C1` (centres unmarked) [Example 75, 4-Amino-1-[4-[4-[6-chloro-4-(1-phenylcyclopropyl)-2-pyridyl]piperazin-1-yl]sulfonylphenyl]pyrrolidin-2-one]: the minimum inhibitory concentration (MIC) (with E. coli (ATCC 25922); in experiment [1]) was 1.22 µg/mL (≈ 2.21 µM) throughout.
Consider `NC1CC(=O)N(c2ccc(S(=O)(=O)N3CCN(c4nc(Cl)cc(C(F)(F)c5ccccc5)n4)CC3)cc2)C1` (centres unmarked) [Example 78, 4-Amino-1-[4-[4-[4-chloro-6-[difluoro(phenyl)methyl]pyrimidin-2-yl]piperazin-1-yl]sulfonylphenyl]pyrrolidin-2-one], for which the MIC worked out at 0.22 µg/mL (≈ 0.391 µM) in the experiment on E. coli (ATCC 25922) and 1.76 µg/mL (≈ 3.13 µM) in experiment [1].
Take `NC1CC(=O)N(c2ccc(S(=O)(=O)N3CCN(c4nc(C5CC5)cc(C(F)(F)c5ccccc5)n4)CC3)cc2)C1` (centres unmarked) [Example 80, 4-Amino-1-[4-[4-[4-cyclopropyl-6-[difluoro(phenyl)methyl]pyrimidin-2-yl]piperazin-1-yl]sulfonylphenyl]pyrrolidin-2-one]: the MIC (with E. coli (ATCC 25922); in experiment [1]) was above 28.4 µg/mL each time.
For `COc1nc(N2CCN(S(=O)(=O)c3ccc(N4CC(N)CC4=O)cc3)CC2)cc(C(F)(F)c2ccccc2)n1` (centres unmarked) [Example 81, 4-Amino-1-[4-[4-[6-[difluoro(phenyl)methyl]-2-methoxy-pyrimidin-4-yl]piperazin-1-yl]sulfonylphenyl]pyrrolidin-2-one], the minimal inhibitory concentration (MIC) is 4.36 µg/mL (≈ 7.81 µM) in the experiment with E. coli (ATCC 25922) and 6.98 µg/mL (≈ 12.5 µM) in experiment [1].
The corresponding values for `O=C1CC2(CNCCN2)CN1c1ccc(S(=O)(=O)N2CCN(c3cc(C(F)(F)c4ccccc4)cc(Cl)n3)CC2)cc1` (centres unmarked) [Example 85, 2-[4-[4-[6-Chloro-4-[difluoro(phenyl)methyl]-2-pyridyl]piperazin-1-yl]sulfonylphenyl]-2,6,9-triazaspiro[4.5]decan-3-one] are 2.29 µg/mL (≈ 3.71 µM) and 2.29 µg/mL (≈ 3.71 µM).
On to `NCC1CCC(=O)N1c1ccc(S(=O)(=O)N2CCN(c3cc(C(F)(F)c4ccccc4)cc(Cl)n3)CC2)cc1` (centres unmarked) [Example 86, 5-(Aminomethyl)-1-[4-[4-[6-chloro-4-[difluoro(phenyl)methyl]-2-pyridyl]piperazin-1-yl]sulfonylphenyl]pyrrolidin-2-one], for which the MIC (with E. coli (ATCC 25922); in experiment [1]) was 1.26 µg/mL (≈ 2.19 µM) in each case.
Consider `Cc1cnc(C(F)(F)c2cc(Cl)nc(N3CCN(S(=O)(=O)c4ccc(N5C[C@H](N)CC5=O)cc4)CC3)c2)cn1` [Example 111, (4R)-4-amino-1-[4-[4-[6-chloro-4-[difluoro-(5-methylpyrazin-2-yl)methyl]-2-pyridyl]piperazin-1-yl]sulfonylphenyl]pyrrolidin-2-one], for which the MIC with E. coli (ATCC 25922) is 0.9 µg/mL (≈ 1.56 µM); in experiment [1] it was 1.8 µg/mL (≈ 3.11 µM).
The like results for `Cc1cncc(C(F)(F)c2cc(Cl)nc(N3CCN(S(=O)(=O)c4ccc(N5C[C@H](N)CC5=O)cc4)CC3)c2)n1` [Example 112, (4R)-4-amino-1-[4-[4-[6-chloro-4-[difluoro-(6-methylpyrazin-2-yl)methyl]-2-pyridyl]piperazin-1-yl]sulfonylphenyl]pyrrolidin-2-one] were, in that order, 0.45 µg/mL (≈ 0.778 µM) and 0.45 µg/mL (≈ 0.778 µM).
The corresponding values for `Cc1nc(C(F)(F)c2cc(Cl)nc(N3CCN(S(=O)(=O)c4ccc(N5C[C@H](N)CC5=O)cc4)CC3)c2)cnc1Cl` [Example 113, (4R)-4-amino-1-[4-[4-[6-chloro-4-[(5-chloro-6-methyl-pyrazin-2-yl)-difluoro-methyl]-2-pyridyl]piperazin-1-yl]sulfonylphenyl]pyrrolidin-2-one] are 0.26 µg/mL (≈ 0.424 µM) and 0.51 µg/mL (≈ 0.833 µM).
Take `C[C@H]1CNCC(C(F)(F)c2cc(Cl)nc(N3CCN(S(=O)(=O)c4ccc(N5C[C@H](N)CC5=O)cc4)CC3)c2)O1` (stereo partly drawn) [Example 114, (4R)-4-amino-1-[4-[4-[6-chloro-4-[difluoro-[cis-6-methylmorpholin-2-yl]methyl]-2-pyridyl]piperazin-1-yl]sulfonylphenyl]pyrrolidin-2-one]: the MIC is 0.91 µg/mL (≈ 1.56 µM) in the experiment with E. coli (ATCC 25922) and 1.8 µg/mL (≈ 3.08 µM) in experiment [1].
With `CC1COC(C(F)(F)c2cc(Cl)nc(N3CCN(S(=O)(=O)c4ccc(N5C[C@H](N)CC5=O)cc4)CC3)c2)CN1` (some centres unmarked) [Example 115], the MIC came out at 0.97 µg/mL (≈ 1.66 µM) with E. coli (ATCC 25922) and 1.9 µg/mL (≈ 3.25 µM) in experiment [1].
The corresponding values for `N[C@@H]1CC(=O)N(c2ccc(S(=O)(=O)N3CCN(c4cc(C(F)(F)C56CNC[C@H]5C6)cc(Cl)n4)CC3)cc2)C1` (stereo partly drawn) [Example 116, (4R)-4-amino-1-[4-[4-[4-[[cis-3-azabicyclo[3.1.0]hexan-1-yl]-difluoro-methyl]-6-chloro-2-pyridyl]piperazin-1-yl]sulfonylphenyl]pyrrolidin-2-one] are 0.47 µg/mL (≈ 0.829 µM) and 0.94 µg/mL (≈ 1.66 µM).
As for `N[C@@H]1CC(=O)N(c2ccc(S(=O)(=O)N3CCN(c4cc(C(F)(F)C5C[C@H]5CO)cc(Cl)n4)CC3)cc2)C1` (stereo partly drawn) [Example 117, (4R)-4-amino-1-[4-[4-[6-chloro-4-[trans-difluoro-[2-(hydroxymethyl)cyclopropyl]methyl]-2-pyridyl]piperazin-1-yl]sulfonylphenyl]pyrrolidin-2-one], the MIC was 0.93 µg/mL (≈ 1.67 µM) in the experiment with E. coli (ATCC 25922) and 1.9 µg/mL (≈ 3.42 µM) in experiment [1].
The corresponding values for `NC[C@H]1CC[C@H](C(F)(F)c2cc(Cl)nc(N3CCN(S(=O)(=O)c4ccc(N5C[C@H](N)CC5=O)cc4)CC3)c2)CC1` [Example 118, (4R)-4-amino-1-[4-[4-[4-[[trans-4-(aminomethyl)cyclohexyl]-difluoro-methyl]-6-chloro-2-pyridyl]piperazin-1-yl]sulfonylphenyl]pyrrolidin-2-one] are 0.5 µg/mL (≈ 0.837 µM) and 0.99 µg/mL (≈ 1.66 µM).
The like results for `N[C@@H]1CC(=O)N(c2ccc(S(=O)(=O)N3CCN(c4cc(C(F)(F)[C@H]5C[C@H](O)C5)cc(Cl)n4)CC3)cc2)C1` [Example 119, (4R)-4-amino-1-[4-[4-[6-chloro-4-[trans-difluoro-(3-hydroxycyclobutyl)methyl]-2-pyridyl]piperazin-1-yl]sulfonylphenyl]pyrrolidin-2-one] were, in that order, 0.46 µg/mL (≈ 0.827 µM) and 0.46 µg/mL (≈ 0.827 µM).
